Starred links: 1 amine or outer side, 2 acyl side, 3 side chain; linkers in the order of their positions; H or OH if unused. Positions of bridges follow the written chain, without caps; N, C: chain ends. Non-standard residues stand in square brackets, D forms with d. Residues, ends and D or L forms follow the SMILES beside them. Chains are numbered I, II in the order given. Actinocin(9to1) = Cc1c2oc3c(C)ccc(C(=O)[*:1])c3nc-2c(C(=O)[*:2])c(N)c1=O; NMeV = CN[C@H](C(=O)O)C(C)C; Sar = CNCC(=O)O
Organism: Rattus norvegicus
Experiment: DrugMatrix - Regimen: Daily Repeat
Assay type: toxicity, organism-based, Sprague-Dawley
Design: regimen Daily Repeat, gender Male, age 6-8 weeks
Conditions: in vivo, iv, vehicle 100 % SALINE; for ABSOLUTE BASOPHIL / ABSOLUTE EOSINOPHIL / ABSOLUTE LYMPHOCYTE / ABSOLUTE MONOCYTE / ABSOLUTE SEGMENTED NEUTROPHIL / BASOPHIL / EOSINOPHIL / ERYTHROCYTE COUNT / HEMATOCRIT / HEMOGLOBIN / LEUKOCYTE COUNT / LYMPHOCYTE / MEAN CORPUSCULAR HEMOGLOBIN / MEAN CORPUSCULAR HEMOGLOBIN CONCENTRATION / MEAN CORPUSCULAR VOLUME / MONOCYTE / NEUTROPHIL / NUCLEATED RED BLOOD CELLS / PLATELET COUNT: tissue Blood; for ALANINE AMINOTRANSFERASE / ALBUMIN / ALKALINE PHOSPHATASE / ASPARTATE AMINOTRANSFERASE / BLOOD UREA NITROGEN / CARBON DIOXIDE / CHLORIDE / CHOLESTEROL / CREATINE PHOSPHOKINASE / CREATININE / GLUCOSE / LACTATE DEHYDROGENASE / LIPASE / PHOSPHORUS / POTASSIUM / SODIUM / TOTAL BILIRUBIN / TOTAL PROTEIN / URIC ACID: tissue Plasma
[1] = 0 mg/kg, 72 h, dose level Control, time 3 day
[2] = 0 mg/kg, 120 h, dose level Control, time 5 day
[3] = 0.006 mg/kg, 72 h, dose level Low, time 3 day

Structure (SMILES): Cc1c2oc3c(C)ccc(C(=O)N[C@@H]4C(=O)N[C@H](C(C)C)C(=O)N5CCC[C@H]5C(=O)N(C)CC(=O)N(C)[C@@H](C(C)C)C(=O)O[C@@H]4C)c3nc-2c(C(=O)N[C@@H]2C(=O)N[C@H](C(C)C)C(=O)N3CCC[C@H]3C(=O)N(C)CC(=O)N(C)[C@@H](C(C)C)C(=O)O[C@@H]2C)c(N)c1=O [DACTINOMYCIN] (I: T[dV]P[Sar][NMeV] / II: T[dV]P[Sar][NMeV]; ester I:1-I:C, II:1-II:C; linker I:N-II:N via Actinocin(9to1))
- ABSOLUTE BASOPHIL [1]: 0 CELLS/uL
- ABSOLUTE EOSINOPHIL [1]: 33.67 CELLS/uL
- ABSOLUTE LYMPHOCYTE [1]: 12123.5 CELLS/uL
- ABSOLUTE MONOCYTE [1]: 243.5 CELLS/uL
- ABSOLUTE SEGMENTED NEUTROPHIL [1]: 1282.67 CELLS/uL
- BASOPHIL [1]: 0%
- EOSINOPHIL [1]: 0.33%
- ERYTHROCYTE COUNT [1]: 5.18 x10E6/uL
- HEMATOCRIT [1]: 32.63%
- HEMOGLOBIN [1]: 12.87 G/DL
- LEUKOCYTE COUNT [1]: 13.68 x10E3/uL
- LYMPHOCYTE [1]: 88.67%
- MEAN CORPUSCULAR HEMOGLOBIN [1]: 24.98 pg
- MEAN CORPUSCULAR HEMOGLOBIN CONCENTRATION [1]: 39.48 G/DL
- MEAN CORPUSCULAR VOLUME [1]: 63.23 fL
- MONOCYTE [1]: 1.83%
- NEUTROPHIL [1]: 9.17%
- NUCLEATED RED BLOOD CELLS [1]: 0.17 /100WBC
- PLATELET COUNT [1]: 1114.5 x10E3/uL
- ALANINE AMINOTRANSFERASE [1]: 46.17 u/L
- ALBUMIN [1]: 4.15 G/DL
- ALKALINE PHOSPHATASE [1]: 374.67 u/L
- ASPARTATE AMINOTRANSFERASE [1]: 89.33 u/L
- BLOOD UREA NITROGEN [1]: 14.83 mg/dL
- CARBON DIOXIDE [1]: 25.67 mmol/L
- CHLORIDE [1]: 101.17 MEQ/L
- CHOLESTEROL [1]: 63.5 mg/dL
- CREATINE PHOSPHOKINASE [1]: 494.67 u/L
- CREATININE [1]: 0.17 mg/dL
- GLUCOSE [1]: 163 mg/dL
- LACTATE DEHYDROGENASE [1]: 269.33 u/L
- LIPASE [1]: 10.67 u/L
- PHOSPHORUS [1]: 11.27 mg/dL
- POTASSIUM [1]: 5.85 MEQ/L
- SODIUM [1]: 141.68 MEQ/L
- TOTAL BILIRUBIN [1]: 0.18 mg/dL
- TOTAL PROTEIN [1]: 5.87 G/DL
- URIC ACID [1]: 1.28 mg/dL
- ABSOLUTE BASOPHIL [2]: 0 CELLS/uL
- ABSOLUTE EOSINOPHIL [2]: 24.67 CELLS/uL
- ABSOLUTE LYMPHOCYTE [2]: 11832.83 CELLS/uL
- ABSOLUTE MONOCYTE [2]: 279.67 CELLS/uL
- ABSOLUTE SEGMENTED NEUTROPHIL [2]: 1446.17 CELLS/uL
- BASOPHIL [2]: 0%
- EOSINOPHIL [2]: 0.17%
- ERYTHROCYTE COUNT [2]: 5.61 x10E6/uL
- HEMATOCRIT [2]: 35.02%
- HEMOGLOBIN [2]: 13.82 G/DL
- LEUKOCYTE COUNT [2]: 13.58 x10E3/uL
- LYMPHOCYTE [2]: 87.67%
- MEAN CORPUSCULAR HEMOGLOBIN [2]: 24.68 pg
- MEAN CORPUSCULAR HEMOGLOBIN CONCENTRATION [2]: 39.5 G/DL
- MEAN CORPUSCULAR VOLUME [2]: 62.42 fL
- MONOCYTE [2]: 2%
- NEUTROPHIL [2]: 10.17%
- NUCLEATED RED BLOOD CELLS [2]: 0 /100WBC
- PLATELET COUNT [2]: 1178.17 x10E3/uL
- ALANINE AMINOTRANSFERASE [2]: 52.83 u/L
- ALBUMIN [2]: 4.12 G/DL
- ALKALINE PHOSPHATASE [2]: 370 u/L
- ASPARTATE AMINOTRANSFERASE [2]: 100.5 u/L
- BLOOD UREA NITROGEN [2]: 15.17 mg/dL
- CARBON DIOXIDE [2]: 28.83 mmol/L
- CHLORIDE [2]: 101 MEQ/L
- CHOLESTEROL [2]: 69.5 mg/dL
- CREATINE PHOSPHOKINASE [2]: 488.67 u/L
- CREATININE [2]: 0.23 mg/dL
- GLUCOSE [2]: 165 mg/dL
- LACTATE DEHYDROGENASE [2]: 502.17 u/L
- LIPASE [2]: 11 u/L
- PHOSPHORUS [2]: 11.7 mg/dL
- POTASSIUM [2]: 5.85 MEQ/L
- SODIUM [2]: 142.45 MEQ/L
- TOTAL BILIRUBIN [2]: 0.18 mg/dL
- TOTAL PROTEIN [2]: 5.85 G/DL
- URIC ACID [2]: 1.43 mg/dL
- ABSOLUTE BASOPHIL [3]: 0 CELLS/uL
- ABSOLUTE EOSINOPHIL [3]: 0 CELLS/uL
- ABSOLUTE LYMPHOCYTE [3]: 7777.33 CELLS/uL
- ABSOLUTE MONOCYTE [3]: 151.33 CELLS/uL
- ABSOLUTE SEGMENTED NEUTROPHIL [3]: 1138 CELLS/uL
- BASOPHIL [3]: 0%
- EOSINOPHIL [3]: 0%
- ERYTHROCYTE COUNT [3]: 5.68 x10E6/uL
- HEMATOCRIT [3]: 35.57%
- HEMOGLOBIN [3]: 13.43 G/DL
- LEUKOCYTE COUNT [3]: 9.07 x10E3/uL
- LYMPHOCYTE [3]: 85.67%
- MEAN CORPUSCULAR HEMOGLOBIN [3]: 23.67 pg
- MEAN CORPUSCULAR HEMOGLOBIN CONCENTRATION [3]: 37.77 G/DL
- MEAN CORPUSCULAR VOLUME [3]: 62.63 fL
- MONOCYTE [3]: 1.67%
- NEUTROPHIL [3]: 12.67%
- NUCLEATED RED BLOOD CELLS [3]: 0 /100WBC
- PLATELET COUNT [3]: 1053 x10E3/uL
- ALANINE AMINOTRANSFERASE [3]: 49.33 u/L
- ALBUMIN [3]: 4.33 G/DL
- ALKALINE PHOSPHATASE [3]: 363.33 u/L
- ASPARTATE AMINOTRANSFERASE [3]: 85.33 u/L
- BLOOD UREA NITROGEN [3]: 14 mg/dL
- CARBON DIOXIDE [3]: 26 mmol/L
- CHLORIDE [3]: 101.67 MEQ/L
- CHOLESTEROL [3]: 85.33 mg/dL
- CREATINE PHOSPHOKINASE [3]: 333 u/L
- CREATININE [3]: 0.25 mg/dL
- GLUCOSE [3]: 155.67 mg/dL
- LACTATE DEHYDROGENASE [3]: 134 u/L
- LIPASE [3]: 11 u/L
- PHOSPHORUS [3]: 10.57 mg/dL
- POTASSIUM [3]: 6.37 MEQ/L
- SODIUM [3]: 143.37 MEQ/L
- TOTAL BILIRUBIN [3]: 0.3 mg/dL
- TOTAL PROTEIN [3]: 6.17 G/DL
- URIC ACID [3]: 1.6 mg/dL

— ChEMBL document CHEMBL3885881, “DrugMatrix”
